Results taken from US20110296540A1, “ASSAY FOR SCREENING ANTIDEPRESSANTS” (priority 2008, published 2011).
Like-named read-outs stand apart in the source and are kept apart here.

Tests used:
[1] = test system: SvEv129 mice; test: Novelty-suppressed feeding test, sham or x-irradiated animals; type: in vivo; conditions: 28 d of fluoxetine; sham animals
Procedure: Novelty-suppressed feeding test. […] The floor was covered with ˜2 cm of wooden bedding. Twenty-four hours before behavioral testing, animals were deprived of all food in the home cage. At the time of testing, two food pellets were placed on a piece of round filter paper (12 cm diameter) positioned in the center of the box. The test began immediately after the animal was placed in a corner of the box. The latency to approach the pellet and begin feeding was recorded (maximum time, 5 min). Immediately afterward, the animal was transferred back to its home cage and the amount of food consumed in 5 min was measured. Each mouse was weighed before food deprivation and before testing to assess the percentage of body weight lost.
In the NSF paradigm, conflicting motivations are produced by presenting a food-deprived animal with a reward (food) within the context of a novel, aversive environment. The NSF test is among the few behavioral paradigms that can differentiate chronic versus subchronic responses to antidepressant treatments, using the latency to begin eating as an index of antidepressant/anxiety-like behavior.

[2] = test system: C57BL/6Ntac mice; test: Open Field paradigm, chronic corticosterone model; type: in vivo
Excerpt: The procedure described previously was used (Dulawa et al., 2004). Motor activity was quantified in four Plexiglas open field boxes 43 times 43 cm2 (MED Associates, Georgia, Vt.). Two sets of 16 pulse-modulated infrared photobeams were placed on opposite walls 2.5-cm apart to record x-y ambulatory movements. Activity chambers were computer interfaced for data sampling at 100-ms resolution. The computer defined grid lines that divided each Open Field into center and surround regions, with each of four lines being 11 cm from each wall. Dependent measures in the center were the total time and the number of entries over a 30-min period of test. The whole session was also divided in […] to analyze the time spent in the center every 5 min. The overall motor activity was quantified as the total distance traveled (cm) or distance traveled in the center divided by total distance traveled.
Mice were anesthetized with ketamine and xylazine (100 mg/ml ketamine; 20 mg/ml xylazine), placed in a stereotaxic frame and exposed to cranial irradiation using a Siemens Stabilopan X-ray system operated at 300 kVp and 20 mA. Animals were protected with a lead shield that covered the entire body, but left unshielded a 3.22×11-mm treatment field above the hippocampus (interaural 3.00 to 0.00) exposed to X-Ray. Dosimetry was done using a Capintec Model PR06G electrometer ionization chamber and Kodak Readypack Radiographic XV films. The corrected dose rate was approximately 1.8 Gy per min at a source to skin distance of 30 cm. The procedure lasted 2 min and 47 sec, delivering a total of 5 Gy. Three 5 Gy doses were delivered on days 1, 4 and 8.

[3] = test system: HPA axis; test: Stress evoked increase of corticosterone levels; type: in vivo, mice; conditions: acute swim stress; baseline conditions and after chronic corticosterone treatment
Procedure: Adult male C57BL/6Ntac mice were exposed to a 6 minutes swim stress. […]. Blood was collected into ice-chilled tubes containing EDTA and centrifuged at 3000 rpm for 10 min (at 4° C.) for separation of plasma, and plasma samples were stored at −80° C. until assayed. […]; Diagnostic Systems Laboratories, Inc. Webster, Tex.; sensitivity limit: 20 ng/ml). ACTH was measured directly in plasma using an ImmuChem™ Double Antibody hACTH 1251 RIA kit (No. 07-106101; MP Biomedicals, LLC, Orangeburg, N.Y.) with a sensitivity limit ˜5.7 pg/ml. All samples were measured simultaneously to reduce inter-assay variability.

[4] = test system: β-arrestin 2 knock out mice; test: Forced Swim Test in β-arrestin 2 knock out mice and littermates; type: in vivo; conditions: relative to the control group
Procedure: The forced swim test procedure was modified relative to the traditional method, so as to enhance sensitivity for detecting the putative antidepressant activity of drugs (Porsolt et al., 1977). The modifications consist of an increase in water depth (Dulawa et al., 2004). Mice were placed into plastic buckets (19 cm diameter, 23 cm deep, filled with 23-25° C. water) and videotaped for 6 min to score immobility duration.

[5] = test system: C57BL/6Ntac mice; test: Home cage activity; type: in vivo; conditions: chronic antidepressant treatment (fluoxetine 18 mg/kg/day)
Procedure: Home cage activity Home cage activity was quantified using the ActiV-Meter (Bioseb, France) over a 24 hours period. During the experiment, food and water were provided ad libitum. Various parameters such as activity time (sec), ambulatory distance (cm) and inactivity duration (calculated from the difference between immobility and motionless activity duration while the animal is eating or scratching) were recorded. The open field paradigm, the novelty suppressed feeding, the forced swim test The procedure for each behavioral test, i.e. the open field paradigm, the novelty suppressed feeding, the forced swim test, is described in the materials and methods section.

[6] = test system: 1A-High and 1A-Low mice; test: Novelty-suppressed feeding paradigm in 1A-High and 1A-Low mice; type: in vivo; conditions: twenty-five days, 18 mg/kg/day p.o.
Excerpt: The NSF paradigm is a test of hyponeophagia that measures the latency of a mouse to consume food placed in the middle of a brightly lit, aversive arena.

[7] = molecular target: T1, 5-HT1A autoreceptors (Mus musculus, UniProt Q64264)
T1 sequence (Q64264 1-421): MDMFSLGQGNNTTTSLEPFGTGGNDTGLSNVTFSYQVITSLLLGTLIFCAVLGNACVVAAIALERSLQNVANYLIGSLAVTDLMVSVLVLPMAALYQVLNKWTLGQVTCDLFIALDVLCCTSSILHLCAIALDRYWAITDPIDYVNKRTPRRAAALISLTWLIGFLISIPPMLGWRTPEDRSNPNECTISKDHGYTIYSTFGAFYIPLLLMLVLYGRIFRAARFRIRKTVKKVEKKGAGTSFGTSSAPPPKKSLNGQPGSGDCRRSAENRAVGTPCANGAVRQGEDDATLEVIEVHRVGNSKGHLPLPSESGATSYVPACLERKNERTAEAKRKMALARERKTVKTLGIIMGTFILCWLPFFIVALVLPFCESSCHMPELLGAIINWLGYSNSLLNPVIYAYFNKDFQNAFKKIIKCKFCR
Procedure: (A) 8-OH DPAT-induced hypothermia in 1A-High and 1A-Low mice. Following establishment of baseline body temperature, animals received IP injections of 0.1 mg/kg 8-OHDAPT, 0.5 mg/kg 8-OH DPAT, or saline (N=5/dose/group). Values are expressed as core temperature change from the last recorded baseline temperature.

CNCCC(Oc1ccc(C(F)(F)F)cc1)c1ccccc1 (stereo not drawn) [fluoxetine] was tested, and the “latency to feed (NSF)” value [1] was “reduced latency to feed”, the “corticosterone-induced anxiety phenotype in the Open Field (time and entries in the center)” value ([2]; 3-week antidepressant treatment in corticosterone-treated mice, imipramine 40, fluoxetine 18 mg/kg/day) was “reversed” and the “ambulatory distance (Open Field)” value ([2]; chronic corticosterone, with or without chronic fluoxetine) was “abolished”. The “corticosterone-induced decrease of Open Field center parameters” value ([2]; chronic fluoxetine, regardless of X-irradiation) was “reversed”, the “stress induced corticosterone levels” value [3] was “had no effect” and the “immobility (FST)” value ([4]; wild-type mice) was “decrease in immobility”. The “immobility (FST)” value ([4]; β-arrestin 2 knockout mice) was “decrease in immobility”, the “corticosterone-induced decreased home cage activity and flattened circadian rhythm” value [5] was “is not reversed” and the “latency to feed (NSF), response to fluoxetine” value ([6]; 1A-High mice) was “no response”. For the same molecule, the “latency to feed (NSF), response to fluoxetine” value ([6]; 1A-Low mice) was “responded robustly”, the “hypothermic response to 8-OH DPAT after chronic fluoxetine” value ([7]; 1A-High mice treated with fluoxetine for 30 days) was “no hypothermic response” and the “hypothermic response to 8-OH DPAT after chronic fluoxetine” value ([7]; 1A-Low mice treated with fluoxetine for 30 days) was “blunted hypothermic response”.
